Measurements: the CheMixHub viscosity set
± gives the uncertainty stated by the source.

Experiment: xn = mol fraction of the nth substance listed

ClC(Cl)=C(Cl)Cl + CCCCCCC
303.15 K, 101 kPa
Conditions | viscosity [mPa·s]
x1 = 0.196 | 0.442 ± 0.01
x1 = 0.3642 | 0.497 ± 0.01
x1 = 0.4421 | 0.529 ± 0.01
x1 = 0.4713 | 0.543 ± 0.01
x1 = 0.5272 | 0.568 ± 0.009
x1 = 0.6106 | 0.61 ± 0.009
x1 = 0.6939 | 0.653 ± 0.009
x1 = 0.7237 | 0.668 ± 0.009
x1 = 0.8091 | 0.714 ± 0.008
x1 = 0.9254 | 0.775 ± 0.008

O=[N+]([O-])c1ccccc1 + CCCCCCC
101.3 kPa
Conditions | viscosity [mPa·s]
293.15 K, x1 = 0.149 | 0.482 ± 0.004
293.15 K, x1 = 0.2214 | 0.532 ± 0.004
293.15 K, x1 = 0.2746 | 0.58 ± 0.004
293.15 K, x1 = 0.3291 | 0.631 ± 0.005
293.15 K, x1 = 0.4214 | 0.759 ± 0.007
293.15 K, x1 = 0.4477 | 0.805 ± 0.007
293.15 K, x1 = 0.4729 | 0.845 ± 0.008
293.15 K, x1 = 0.4886 | 0.862 ± 0.008
293.15 K, x1 = 0.5628 | 0.937 ± 0.007
293.15 K, x1 = 0.6392 | 1.016 ± 0.008
293.15 K, x1 = 0.7954 | 1.313 ± 0.01
293.15 K, x1 = 0.8751 | 1.517 ± 0.01
293.16 K, x1 = 0.383 | 0.845 ± 0.009
293.57 K, x1 = 0.383 | 0.831 ± 0.008
294.17 K, x1 = 0.383 | 0.812 ± 0.007
295.09 K, x1 = 0.383 | 0.794 ± 0.006
295.15 K, x1 = 0.149 | 0.471 ± 0.004
295.15 K, x1 = 0.2214 | 0.517 ± 0.004
295.15 K, x1 = 0.2746 | 0.562 ± 0.004
295.15 K, x1 = 0.3291 | 0.611 ± 0.005
295.15 K, x1 = 0.4214 | 0.72 ± 0.006
295.15 K, x1 = 0.4477 | 0.759 ± 0.006
295.15 K, x1 = 0.4729 | 0.79 ± 0.006
295.15 K, x1 = 0.4886 | 0.808 ± 0.006
295.15 K, x1 = 0.5628 | 0.896 ± 0.007
295.15 K, x1 = 0.6392 | 0.984 ± 0.007
295.15 K, x1 = 0.7954 | 1.274 ± 0.009
295.15 K, x1 = 0.8751 | 1.475 ± 0.01
296.42 K, x1 = 0.383 | 0.768 ± 0.006
298.66 K, x1 = 0.383 | 0.736 ± 0.006
299.15 K, x1 = 0.149 | 0.451 ± 0.003
299.15 K, x1 = 0.2214 | 0.498 ± 0.004
299.15 K, x1 = 0.2746 | 0.539 ± 0.004
299.15 K, x1 = 0.3291 | 0.579 ± 0.004
299.15 K, x1 = 0.4214 | 0.67 ± 0.005
299.15 K, x1 = 0.4477 | 0.702 ± 0.005
299.15 K, x1 = 0.4729 | 0.73 ± 0.005
299.15 K, x1 = 0.4886 | 0.746 ± 0.006
299.15 K, x1 = 0.5628 | 0.836 ± 0.006
299.15 K, x1 = 0.6392 | 0.926 ± 0.006
299.15 K, x1 = 0.7954 | 1.201 ± 0.008
299.15 K, x1 = 0.8751 | 1.385 ± 0.009
305.15 K, x1 = 0.149 | 0.423 ± 0.003
305.15 K, x1 = 0.2214 | 0.463 ± 0.003
305.15 K, x1 = 0.2746 | 0.503 ± 0.004
305.15 K, x1 = 0.3291 | 0.536 ± 0.004
305.15 K, x1 = 0.4214 | 0.615 ± 0.004
305.15 K, x1 = 0.4477 | 0.643 ± 0.005
305.15 K, x1 = 0.4729 | 0.678 ± 0.005
305.15 K, x1 = 0.4886 | 0.681 ± 0.005
305.15 K, x1 = 0.5628 | 0.764 ± 0.005
305.15 K, x1 = 0.6392 | 0.85 ± 0.006
305.15 K, x1 = 0.7954 | 1.104 ± 0.007
305.15 K, x1 = 0.8751 | 1.26 ± 0.008
313.15 K, x1 = 0.149 | 0.391 ± 0.003
313.15 K, x1 = 0.2214 | 0.425 ± 0.003
313.15 K, x1 = 0.2746 | 0.459 ± 0.004
313.15 K, x1 = 0.3291 | 0.491 ± 0.004
313.15 K, x1 = 0.4214 | 0.558 ± 0.004
313.15 K, x1 = 0.4477 | 0.58 ± 0.004
313.15 K, x1 = 0.4729 | 0.602 ± 0.005
313.15 K, x1 = 0.4886 | 0.613 ± 0.004
313.15 K, x1 = 0.5628 | 0.689 ± 0.005
313.15 K, x1 = 0.6392 | 0.77 ± 0.005
313.15 K, x1 = 0.7954 | 0.984 ± 0.007
313.15 K, x1 = 0.8751 | 1.124 ± 0.008
